6 molecules from US20090054403A1, “Treatment of Post-Traumatic Stress Disorder” (priority 2007, published 2009) can be followed below.

Series [1] deals with blood pressure, heart rate, motor activity. Briefly: Radio-telemetry blood pressure, heart rate, motor activity in normotensive rats, 7 days. The format is in vivo, normotensive Wistar rats (Crl:COBS(WI)BR). The note with it: 10 mg/kg po. As for the experimental part:
Male Crl:COBS(WI)BR rats of 15 weeks old were used. Twenty-four rats were chronically implanted with telemetry implants (TA11PA-C40, Data Sciences, Inc., St. Paul, Minn.) for measurement of arterial blood pressure, heart rate and motor activity. The rat was anesthetized with pentobarbital sodium (60 mg/kg, ip) and its abdomen shaved. Under aseptic conditions, an incision was made on midline. The abdominal aorta was exposed, and cannulated with the catheter of a telemetry transmitter unit. After the transmitter was sutured to the abdominal musculature, the skin was closed. Each rat was allowed to recover for at least 2 weeks before being subjected to drug administration. Three days prior to the start of the experiment, the rats were randomly divided into 4 treatment groups: Vehicle (p.o.), Hydralazine (10 mg/kg, p.o.), nepicastat (30 mg/kg, p.o.), nepicastat (100 mg/kg, p.o.).
Systolic blood pressure (SBP), diastolic blood pressure (DBP), mean blood pressure (MBP), heart rate (HR), and motor activity (MA) were monitored. After the pre-dose values for these parameters were established, respective groups of rats received a 7 day daily treatment of vehicle, nepicastat or hydralazine.
Both nepicastat and hydralazine were prepared in water with traces of Tween 80. All doses were given orally to the rat in 10 ml/kg and were expressed as free base equivalents.
A computerized data collection system was used to continuously collect data on SBP, DBP, MBP, HR, and MA. Data on each rat were collected every 5 min. for 10 sec. These were then averaged hourly and standard errors of the mean (SE) calculated. In this report, only data on MBP, HR and MA were presented. […] Body weights were recorded daily.

The test system of a further series is parkinsonian symptoms. Briefly: Parkinsonian clinical rating scale (CRS) in MPTP-lesioned monkeys. The format is in vivo, squirrel monkeys (Saimiri sciureus). As for the experimental part: A total of 24 squirrel monkeys (Saimiri sciureus), fourteen females and ten males were used in this study. The twenty-four animals were randomly assigned to one of four treatment groups, with 6 animals per group. The groups consisted of the following (1) group A: placebo (2) group B: 1 mg/kg/day; (3) group C: 4 mg/kg/day; and (4) group D: 10 mg/kg/day. In Group B, one animal died acutely following MPTP-lesioning, and was not replaced.
Animals were lesioned by the administration of MPTP at a concentration of 2.0 mg/kg (free-base) via subcutaneous injection to achieve a parkinsonian state (see FIGS. 151-156). A post-MPTP lesioning behavioral assessment was carried out 2 to 4 weeks after the last MPTP-Iesioning. Locomotor activity was monitored by IRAM in 60-minute sessions for 3 to 5 days. Clinical behavior (CAS) was assessed by one to three individuals rating over a period of 3 to 5 days.
Animals were tested for response to L-Dopa and the efficacy of drug nepicastat. Testing was carried out 4 to 12 weeks after the last MPTP dose. Twenty-tour squirrel monkeys were randomly assigned to 4 groups; Group A (6 animals) received placebo (water) treatment; Group B (5 animals) received drug nepicastat at 1 mg/kg/day (0.5 mg/kg twice daily); Group C (6 animals) received 4 mg/kg/day (2 mg/kg twice daily); and Group D (6 animals) received 10 mg/kg/day (5 mg/kg twice daily).
L-Dopa was administered at a concentration of either 2.5, 5, or 7.5 mg/kg by oral gavage twice daily (at 10 am and 2 pm) for 7 consecutive days. Behavior was determined by IRAM and CRS. Clinical rating was carried out 60 to 90 minutes following the 10 am morning dose on the last 4 days of treatment. Raters (one to three individuals) were blinded to the different treatment groups. IRAM assessment were preformed for 90 minutes immediately following drug administration at 2 pm on the last 2 to 5 days of drug treatment. There was a minimum 2 day washout period between each treatment dose.
Drug nepicastat or water (as placebo) was administered for 12 days following a minimum 2 day washout after L-Dopa dosing. Drug was administered twice daily at 10 am and 2 pm by oral gavage. Behavior was rated by IRAM and CRS. The CRS was conducted in the morning, 60 to 90 minutes after the 10 am dose of nepicastat on the last 5 days of drug treatment. Raters (one to three individuals) were blinded to the different treatment groups. IRAM assessments were preformed for 90 minutes immediately following drug administration at 2 pm on the last 5 days of drug treatment.
Eight parkinsonian features were rated in each animal and the total score was derived from the sum of these eight features. […]

In the next series the test system is serum T3 and T4 levels. Briefly: Thyroid function (serum T3, T4) in iodine-deficient rats, 10 days. The format is in vivo, Sprague-Dawley rats. The settings on record: for effect on serum T3 and T4 levels: nepicastat 2.0 and 6.2 mg/kg b.i.d., methimazole 1 mg/kg b.i.d., po, 10 days. On the procedure:
Male Sprague-Dawley rats, weighing 180-200 grams, were fed an iodine deficient diet (Purina, 5891C, Lot 1478, 0.066±0.042 mg iodine/kg sample) ad libitum 14 days prior to treatment. Animals were weighed and randomly assigned to one of the following treatment groups (n=12 per group): Nepicastat at 2.0 mg/kg, Nepicastat at 6.2 mg/kg, R, Methimazole at 1 mg/kg, or vehicle at 1 ml/kg. Each group of rats was dosed orally in the evening and the following morning, approximately 12 hours apart, for 10 consecutive days.
Orbital blood samples were taken at day—3, 0, 3, 7, and 9 (day 0 was the first day of dosing). Serum samples were analyzed for T3 and T4 levels using a radioimmunoassay.
To statistically evaluate changes in T3 and T4 levels, a change from baseline was calculated from the day-3 time point. A non-parametric two-way within subject analysis of variance (ANOVA) was conducted. Also a one-way ANOVA was performed to detect if a significant difference from control occurred. Pairwise analyses between controls and each treatment group were carried out using Fisher's LSD strategy to control the experiment-wise error rate. For statistical analysis of catecholamine levels, a one-way ANOVA with factor DOSE was performed. Pairwise analyses between treated and controls at each dose were carried out using Fisher's LSD strategy to control the experiment-wise error rate.

The nature of series [2]: Plasma levels of nepicastat and N-acetyl metabolite in dogs, 2 mg/kg b.i.d. In kind it is in vivo, beagle dogs. The settings on record: after nepicastat 2 mg/kg bid, any of the days. As for the experimental part:
Male Beagle dogs (Marshall farms, North Rose, N.Y.) weighing between 9-16 kg were used in the study. The animals were allowed water ad libitum and given food once daily at ˜10.00 AM. Animals were randomly assigned to one of the following treatment groups (n=8/group): placebo (empty capsule), or nepicastat at 2 mg/kg b.i.d (4 mg/kg/day). Each animal received 2 doses daily, morning and afternoon (8-10 hours apart). Daily blood samples (10 ml) were drawn 6 h after the AM dose for measurement of plasma levels of nepicastat and catecholamines. The blood was collected in tubes containing heparin and glutathione and centrifuged at −4° C. within 1 h of collection. The plasma was separated and divided into two samples, one for the measurement of plasma catecholamines and the other for analysis of nepicastat.
Plasma NE, DA and EPI were anaylysed by HPLC using electrochemical detection. Plasma concentration of nepicastat was determined by HPLC using electrochemical detection.

The test system of series [3] is mean arterial pressure and heart rate. Briefly: Heart rate and mean arterial pressure in restrained SHR with SCH-23390 pretreatment. In kind it is in vivo, spontaneous hypertensive rats. The settings on record: 200 μg/kg iv, 15 min post-iv period. An excerpt: Male, spontaneous hypertensive rats (280-345 g; Charles River Labs, Kingston, N.Y.) were fasted overnight then anesthetized with ether. A femoral artery and femoral vein were cannulated with PE50 tubing for recording of blood pressure and administration of compounds, respectively. Animals were then placed in MAYO restrainers and their feet loosely taped to the restrainer. Heparinized saline (50 units sodium heparin/ml) was used to maintain patency of each cannula throughout the experiment. The following parameters were continuously recorded using Modular Instruments MI^2 BioReport™ software installed on an IBM personal computer: mean arterial pressure (MAP), heart rate (HR), and the change from baseline for each parameter at specified time points in the experiment.
All compounds were dissolved on the day of use. nepicastat was dissolved in deionized water (vehicle) to a free base concentration of 1 mg/ml. Oral dosing volume for nepicastat or vehicle was 10 ml/kg. SCH-23390 was dissolved in saline (vehicle) to a free base concentration of 0.2 mg/ml. […] or saline were administered intravenously as a bolus in a volume of 1.0 ml/kg followed by 0.2 ml flush of isotonic saline.
Following surgical preparation, each animal was allowed a minimum one hour recovery period. Animals were randomly assigned to four treatment groups: vehicle (iv)/vehicle (po); vehicle (iv)/nepicastat (po); SCH-23390 (iv)/vehicle (po); or SCH-23390 (iv)/nepicastat (po). Once animals were stabilized (minimum one hour), baseline blood pressure and heart rate was determined by taking an average of each parameter over a 15 min period of time. Once baseline blood pressure and heart rate were established, animals were dosed intravenously with either SCH-23390 (200 μg/kg) or vehicle (saline, 1 ml/kg). Fifteen minutes later, animals were orally dosed with either nepicastat (10 mg/kg) or vehicle (deionized water, 10 ml/kg).
Recorded parameters were measured 15 min prior to intravenous dosing to establish baseline blood pressure and heart rate. Recorded parameters were then measured at 5, 10, and 15 min following intravenous administration of SCH-23390 or vehicle. Following oral administration of nepicastat or vehicle, recorded parameters were measured at 15, 30, 60, 90, 120, 150, 180, 210, and 240 min.
At the end of the experiment, each animal was anesthetized with halothane and euthanized via decapitation. The cortex, left ventricle (apex), and mesenteric artery were dissected out, weighed, and fixed in 0.4 M perchloric acid. […] Blood pressure and heart rate were analyzed separately. The change from baseline for blood pressure and heart rate were analyzed by an analysis of variance (ANOVA) with effects for treatment, time, and their interaction. […]

The test system of the next series is blood pressure. Briefly: Radio-telemetry blood pressure in SHR, up to 30 days. The format is in vivo. The note with it: 1 mg/kg, p.o.

SMILES strings stand for the structures. Entries after “also recorded” stand apart in the source; their conditions may differ.

Turning to `NNc1nncc2ccccc12` [Hydralazine, reference compound], in series [1], the “time in which hypotensive effect subsided” value is 10 h. Moreover, in series [1] (within 1 hr after dosing on day 1), the “maximal decrease in MBP” value was −24 mmHg.

Turning to `N[C@@H](Cc1ccc(O)c(O)c1)C(=O)O` [L-Dopa, reference compound], the “CRS / parkinsonian symptoms compared to post-MPTP (pre-treatment) state” value in the series on parkinsonian symptoms (L-Dopa 2.5 mg/kg) is reported as “No groups of animals demonstrated significant improvement; also recorded: no significant effect”; in the series on parkinsonian symptoms (L-Dopa 5 and 7.5 mg/kg, except Group B at 5 and Group C at 7.5 mg/kg), “significant improvement; also recorded: significant effect”.

For `Cn1cc[nH]c1=S` [Methimazole, methimazole], the “reduction in serum levels of T3” value with serum T3 and T4 levels (day 3, 4 h post-dose) was 31%; in the series on serum T3 and T4 levels (day 7, 4 h post-dose), 42%; with serum T3 and T4 levels (day 9, 4 h post-dose), 44%. The “reduction in serum levels of T4” value with serum T3 and T4 levels (day 3, 4 h post-dose) was found to be 46%; with serum T3 and T4 levels (day 7, 4 h post-dose) it was 58%. For the same molecule, the “T4 levels vs vehicle” value with serum T3 and T4 levels (day nine) is given as “only marginally (p<0.10) lower”. Besides, the “effect on serum T3 and T4 levels” value was “significantly (p<0.05) lowered T3 levels on all treatment days” in the series on serum T3 and T4 levels; “significantly reduced” in the series on serum T3 and T4 levels (listed as methimazole).

Consider `CC(=O)NCc1c[nH]c(=S)n1[C@H]1CCc2c(F)cc(F)cc2C1` [N-acetyl metabolite of nepicastat], for which, in series [2], the “plasma levels of the N-acetyl metabolite” value was “No significant levels”.

For `CN1CCc2cc(Cl)c(O)cc2[C@@H](c2ccccc2)C1` [SCH-23390, reference compound], the “decrease in mean arterial pressure” value in series [3] came to 5±1 mmHg.

As to `CCOC(=O)[C@H](CCc1ccccc1)N[C@@H](C)C(=O)N1CCC[C@H]1C(=O)O` [enalapril, reference compound], in the series on blood pressure, the “effect on blood pressure, enalapril alone” value was “failed to lower blood pressure” and the “reduction in left ventricular mass, enalapril alone” value is reported as “did not occur”.
